Experimental data reported in patent publication US7893109B2, “N,N-dihalogenated amino acids and derivatives” (Novabay Pharmaceuticals, Inc., priority 2003, dated 2011).
Values after ≈ are worked out from the molar mass of the structure shown. Read-outs that look alike come from different tables or passages of the source.

What was measured:
in vitro = conditions: human, pH 3.5
Method: (§1) Cytotoxicity was assessed by a […] assay system, initially described by Scudiero et al., using 3′-(phenylamino-carbonyl)-3,4-tetrazolium-bis(4-methoxy-6-nitro) benzene sulfonic acid hydrate (XTT), ProCheck™ cell viability assay (Evaluation of a soluble tetrazolium/formazan assay for cell growth and drug sensitivity in culture using human and other tumor cell lines described by Scudiero D A, Shoemaker R A H, Paul K D, Monks A, Tierney S, Nofziger T H, Currens M J, Seniff D, Boyd M R. Cancer Res. 1988 Sep. 1; 48(17):4827-33). Similar approaches for determining the cell viability are used by other investigators. Three cell types were used: […] (L929), primary human skin fibroblast and primary human keratinocyte cells cultured in Dulbecco Modified Eagle's Medium and Keratinocyte defined medium with corresponding growth factors plus antibiotics. Cells were trypsinized and counted under the microscope and seeded at 1000-to-2000 cells per well of a flat-bottom 96-well plate. Cells were allowed to grow over-night at 37° C. Next day, tissue culture media was removed and cells were rinsed with fresh media 1× and then left in 50 μL of tissue culture media. Test articles were prepared as 2-fold dilutions and 200 μL was added into each set of 4-wells (total volume per well=250 μL). Cells were exposed to test articles for 60 min at room temperature. Immediately after the exposed time, test article from each well was removed and cells were fed with 250 μL of fresh media. Plates were incubated at 37° C. for 18-20 hours. The following day media was removed again and replaced with 100 μL/well of fresh media containing 10/100 μL XTT-reagent. Cells were incubated under growth conditions (5% CO2 at 37° C. humidified incubator), protected from light, until color development was achieved. Absorbance was read at 450 nm with reference wavelength at 750 nm using Molecular Device ThermoMax Plate reader, blanking the plate on the medium-only assay blank wells. Untreated cells receiving XTT reagents-only served as positive cell proliferation control.

[1] = test system: Primary Human Skin Fibroblasts; assay: XTT cytotoxicity assay, primary human skin fibroblasts; conditions: for cell inhibitory concentration toxicity index (CCI50 / IC50), 50% of cells still alive: Primary Human Skin Fibroblasts, XTT Assay, 60 min exposure
Method: as §1

[2] = test system: Escherichia coli (ATCC 11229); assay: Bactericidal activity (MBC / effective antimicrobial concentration); format: cell-based
Method: To determine the bactericidal activity, we used Escherichia coli (ATCC 11229). The bacterial culture was diluted in sterile saline to prepare inocula. Various test articles were transferred to individual tubes already containing 1.0×10^5 to 2.0×10^5 Colony Forming Units (CFU)/mL bacteria and mixed by gentle vortexing and then incubated at 37° C. for 1 or 24 hours. In an attempt to mimic as far as possible the conditions, which could be produced in vivo if the test articles were used as antiseptics, bacterial plating in a Petri dish was performed immediately after the designated exposure time without the addition of a neutralizer, and independently with addition of neutralizer (as control). Thus, 0.1 mL was removed after 1 or 24 hours exposure times and plated. Plates were incubated at 37° C., and the numbers of bacteria were counted by direct colony count to numerate the surviving bacteria as CFU/mL. Positive growth controls were made with sterile 0.9% saline. All test articles were tested three times.

[3] = UV-vis spectrum and concentration of NNDCT solutions at pH 3.0 to 5.0; format: physicochemical; conditions: 1.49 mM; pH range from 3.0 to 5.0
Method: The spectra and the concentrations of the solutions were measured on the UV-vis spectrometer.
Add 8.8 g NaCl, 2 ml of 1.0 M HCl, and 0.278 g of taurine into a 1000-ml volumetric flask, followed by adding about 800 ml of deionized water into the flask. Shake the flask to dissolve NaCl and taurine powders. Then add […] of 0.15M of the NaOCl solution into the flask. Fill the flask up to the mark with deionized water. Stir the solution with a magnetic stirring bar for 5 minutes. The concentration and the pH of the resulting solution were measured on a UV-vis spectrometer and a freshly calibrated Beckman pH meter. This solution has a concentration of 1.49 mM and a pH value of 3.85. […] The final pH of this solution is 3.0. […] The final pH of this solution is 4.85.
Solutions with varying pH values were prepared in a similar manner within the pH range of 3 to 5. All solutions show stability if properly stored as shown by their UV spectra.

[4] = format: physicochemical
Text: N,N-dichlorotaurine can be identified and quantitatively determined by UV spectroscopy.

[5] = Volatility test, tightly vs loosely capped bottles; format: physicochemical; conditions: 1.47 mM in 0.9% saline at pH 3.5; 4 weeks at room temperature
Method: NNDCT is not volatile. A solution of 1.47 mM in 0.9% saline at pH 3.5 was filled in two glass bottles. One bottle was capped tightly and another was capped loosely.

[6] = pH=1.88; after 100 hours; cited from earlier work
[7] = Storage stability of N,N-dichlorotaurine solution in a vial in a refrigerator; format: physicochemical; conditions: solution in a vial stored in a refrigerator; three months
Method: The stability of a solution of N,N-dihaloamino acids and their derivatives permits the use of different forms of packaging that would be practical for use by patients. The solution may be packaged in several single-use 30 ml amber glass bottles with Teflon-lined screw caps and sealed with tape to ensure gas tightness. In one aspect, the same solution may be packaged in a 250 ml amber glass bottle or in a 250 ml non-reactive plastic bottle. However, up to 5 liter bottles may be used, because such larger volumes are practical for treatment of burns. Storage in these receptacles ensures long-term stability required for the uses of the compositions described herein in detail. […] Additionally, packaging may include a dual chamber system where component A is mixed with component B to form the final product, N,N-dihaloamino acid or its derivatives.

[8] = pH 3.5

Q: For `OCl` [HOCl, hypochlorous acid, reference compound], which IC50 at 60 min (in vitro) is on record?
A: 47 µg/mL (≈ 0.896 mM)

Q: What about the “cell inhibitory concentration toxicity index (CCI50 / IC50), 50% of cells still alive” value [1] of the same compound?
A: 800 µM

Q: For `O=S(=O)(O)CCN(Cl)Cl` [NNDCT, N,N-dichlorotaurine], which “bacterial killing efficiency of NNDCT at pH 3.5 compared to NCT at pH 9.5” value ([2]; 60 min exposure at 37° C.) is on record?
A: 1000 fold

Q: What about the “bacterial killing efficiency of NNDCT at pH 3.5 over NNDCT at pH 5.0” value ([2]; 60 min exposure at 37° C.) of the same compound?
A: about 300 fold

Q: And the “effectiveness against E. coli compared with HOCl” value ([2]; pH 3.5)?
A: better or as effective against E. coli as HOCl

Q: What about the “change of spectrum and concentration of solution with pH” value [3] of the same compound?
A: did not change

Q: What about the solubility in water [4] of the same compound?
A: very soluble

Q: And the volatility [5]?
A: not volatile

Q: What about the “loss of N,N-dichlorotaurine” value [6] of the same compound?
A: less than 5%

Q: What about the “loss of N,N-dichlorotaurine” value [7] of the same compound?
A: no more than 13%

Q: What about the NNDCT lost ([8]; 4 weeks, refrigerator (4° C.), [NNDCT]initial=1.47 mM) of the same compound?
A: 5.4%

Q: What about the “order of stability at three temperatures” value [8] of the same compound?
A: 4° C.>room temperature>40 °C

Q: What about the IC50 at 60 min (in vitro) of the same compound?
A: 1440 µg/mL (≈ 7.43 mM)

Q: And the “range of cell toxicity relative to antimicrobial (μM) range” value ([1]; 0.9% saline at pH 3.5, XTT assay, cell type not stated in Example 5)?
A: 1000 fold

Q: What about the “cell inhibitory concentration toxicity index (CCI50 / IC50), 50% of cells still alive” value [1] of the same compound?
A: 7000 µM

Q: With `O=S(=O)(O)CCNCl` [NCT, N-chlorotaurine, reference compound] as the compound, how does the “factor by which less antimicrobial than NNDCT” value ([2]; on an equal concentration basis) read?
A: 1000 fold

Q: Which “cell inhibitory concentration toxicity index (CCI50 / IC50), 50% of cells still alive” value [1] does the source give for `OCl` [OCl^−, reference compound] here?
A: 660 µM
